Measurements published in patent US5753679A, “Benzyl-piperidine derivatives” (priority 1995, dated 1998).

What follows are compounds tested against T1, dopamine D4 receptor (Homo sapiens, UniProt P21917) (assay: Binding to the D4 receptor, [3H]-spiperone displacement, D4-CHO membranes). Details: not given.
T1 construct: expressed in transfected cells; host or cells: CHO (Chinese Hamster Ovary) cells, D4-CHO, crude membranes
T1 sequence (P21917 1-419): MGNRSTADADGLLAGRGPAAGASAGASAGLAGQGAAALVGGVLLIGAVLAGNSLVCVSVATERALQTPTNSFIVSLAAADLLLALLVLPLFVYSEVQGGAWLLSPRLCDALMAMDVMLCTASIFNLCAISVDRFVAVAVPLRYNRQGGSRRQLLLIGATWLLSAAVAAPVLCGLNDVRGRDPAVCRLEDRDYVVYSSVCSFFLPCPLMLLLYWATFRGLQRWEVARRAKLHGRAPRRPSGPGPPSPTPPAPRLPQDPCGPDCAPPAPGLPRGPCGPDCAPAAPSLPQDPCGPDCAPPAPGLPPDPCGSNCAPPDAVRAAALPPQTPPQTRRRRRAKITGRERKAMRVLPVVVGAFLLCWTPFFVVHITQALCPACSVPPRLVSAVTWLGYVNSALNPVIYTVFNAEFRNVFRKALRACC
Experimental: The compounds were characterized by a comparison in binding behaviour to the D4 receptor and to the D2 receptor. CHO cells (Chinese Hamster Ovary) were used in the test. Crude membranes were isolated from D4 --CHO and D2 --CHO cells by ultracentrifugation and were stored at -80° C. After thawing and homogenization in a buffer solution (50 mM Tris, 1 mM EDTA, 5 mM KCI, 1.5 mM CaCI2, 4 mM MgCI2, pH 7.4) they were incubated at room temperature for 90 minutes with 200 pM [^3 H]-spiperone and increasing concentrations (1×10^-11 M to 1×10^-4 M) of the test compound. A non-specific binding by the incubation was established in the presence of 1×10^-5 M (+)-butaclamol.
The unbound radioligand was removed by filtration through a GFIC glass filter and the bound radioactivity was determined by flash emission in a Packard Top Count.
It was determined using ^3 H-spiperone. The calculation of the value was effected with a ligand.

SMILES | Ki [nM]
Nc1ccccc1C(=O)OC1CCN(Cc2ccccc2)CC1 [A/5a, 1-Benzyl-piperidin-4-yl 2-amino-benzoate] | 4

Same assay, conditions: [3H]-spiperone 200 pM, D4-CHO crude membranes, room temperature, 90 minutes, pH 7.4; read-out: Ki at D4

SMILES | Ki [nM]
Nc1ccc(C(=O)OC2CCN(Cc3ccccc3)CC2)nc1 [B/8b, 1-benzyl-piperidin-4-yl 5-amino-picolinate] | 16.4
O=C(OC1CCN(Cc2ccccc2)CC1)c1ccc(Br)cc1 [C/19b, 1-Benzyl-piperidin-4-yl 4-bromo-benzoate] | 10
O=C(OC1CCN(Cc2ccccc2)CC1)c1ccc(I)cc1 [D/22a, 1-Benzyl-piperidin-4-yl 4-iodo-benzoate] | 15
Cc1ccccc1C(=O)OC1CCN(Cc2ccccc2)CC1 [E/24a, 1-Benzyl-piperidin-4-yl 2-methyl-benzoate] | 6
Cc1ccc(C(=O)OC2CCN(Cc3ccccc3)CC2)cc1 [F/25a, 1-Benzyl-piperidin-4-yl 4-methyl-benzoate] | 8
CNc1ccc(C(=O)OC2CCN(Cc3ccccc3)CC2)cc1 [G/32b, 1-Benzyl-piperidin-4-yl 4-methylamino-benzoate] | 5
O=C(OC1CCN(Cc2ccc(Cl)cc2)CC1)c1ccccc1 [H/58c, 1-(4-Chloro-benzyl)-piperidin-4-yl benzoate] | 7.3
Cc1ccc(C(=O)OC2CCN(Cc3ccc(Cl)cc3)CC2)cc1 [I/59a, 1-(4-Chloro-benzyl)-piperidin-4-yl 4-methyl-benzoate] | 15
O=C(OC1CCN(Cc2ccc(Cl)cc2)CC1)c1ccc(Cl)cc1 [J/82a, 1-(4-Chloro-benzyl)-piperidin-4-yl 4-chloro-benzoate] | 18
Cc1ccc(CN2CCC(OC(=O)c3ccc(C)cc3)CC2)cc1 [L/79a, 1-(4-Methyl-benzyl)-piperidin-4-yl 4-methyl-benzoate] | 5.2
O=C(OC1CCN(Cc2cccc([N+](=O)[O-])c2)CC1)c1ccccc1 [M/70b, 1-(3-Nitro-benzyl)-piperidin-4-yl benzoate] | 13
Cc1ccc(C(=O)OC2CCN(Cc3ccccc3)CC2)c(C)c1 [N/46a, 1-benzyl-piperidin-4-yl 2,4-dimethyl-benzoate] | 9
O=C(OC1CCN(Cc2ccc(F)cc2)CC1)c1ccccc1 [O/64b, 1-(4-Fluoro-benzyl)-piperidin-4-yl benzoate] | 18
Cc1ccc(C(=O)OC2CCN(Cc3cccc([N+](=O)[O-])c3)CC2)cc1 [P/71a, 1-(3-Nitro-benzyl)-piperidin-4-yl 4-methyl-benzoate] | 19
Cc1ccc(C(=O)OC2CCN(Cc3cccc(N)c3)CC2)cc1 [Q/73a, 1-(3-Amino-benzyl)-piperidin-4-yl 4-methyl-benzoate] | 19
Cc1ccc(C(=O)OC2CCN(Cc3ccccc3N)CC2)cc1 [R/69a, 1-(2-Amino-benzyl)-piperidin-4-yl 4-methyl-benzoate] | 17.5
COc1ccc(CN2CCC(OC(=O)c3ccccc3)CC2)cc1 [S/80c, 1-(4-Methoxy-benzyl)-piperidin-4-yl benzoate] | 15
Cc1ccc(CN2CCC(OC(=O)c3ccccc3)CC2)cc1 [k/78b, 1-(4-Methyl-benzyl)-piperidin-4-yl benzoate] | 3.8
